Reference: paper PMC3527388, “Transport Mechanisms and Their Pathology-Induced Regulation Govern Tyrosine Kinase Inhibitor Delivery in Rheumatoid Arthritis” (PLoS ONE, 2012)

Molecular target: T1, novel organic cation transporter 1 (hOCTN1) (Homo sapiens, UniProt Q9H015)
T1 construct: gene SLC22A4
T1 sequence (Q9H015 1-551): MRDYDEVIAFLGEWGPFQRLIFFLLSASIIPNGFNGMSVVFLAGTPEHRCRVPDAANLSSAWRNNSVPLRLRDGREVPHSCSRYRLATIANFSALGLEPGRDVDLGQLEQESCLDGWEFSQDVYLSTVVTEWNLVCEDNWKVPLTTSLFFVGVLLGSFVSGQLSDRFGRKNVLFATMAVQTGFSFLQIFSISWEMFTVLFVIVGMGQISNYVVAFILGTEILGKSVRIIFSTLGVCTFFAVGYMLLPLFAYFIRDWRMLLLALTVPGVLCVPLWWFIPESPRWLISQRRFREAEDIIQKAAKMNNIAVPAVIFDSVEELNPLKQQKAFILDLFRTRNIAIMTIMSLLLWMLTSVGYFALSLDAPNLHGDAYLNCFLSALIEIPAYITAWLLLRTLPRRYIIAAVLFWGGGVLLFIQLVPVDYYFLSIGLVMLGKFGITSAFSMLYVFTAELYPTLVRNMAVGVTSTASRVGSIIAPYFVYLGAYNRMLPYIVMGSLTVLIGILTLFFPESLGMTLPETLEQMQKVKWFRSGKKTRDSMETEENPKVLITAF
Assay: ASP+ uptake in HEK293 cells with doxycycline-induced versus uninduced hOCTN1
Format: cell-based
Text: ASP+ uptake in HEK293 cells with doxycycline-induced versus uninduced hOCTN1 on novel organic cation transporter 1 (hOCTN1) | ASP^+ is a substrate for hOCTN1. Comparison of ASP^+ uptake by HEK293 cells stably transfected

Question: For `CN(C)c1ccc(C=Cc2cc[n+](C)cc2)cc1` [ASP+, 4-(4-(Dimethylamino)Styryl)-N-methylpyridinium], which “ASP+ uptake in HEK293 cells with doxycycline-induced versus uninduced hOCTN1” value is on record?
Answer: The value was “ASP^+ is a substrate for hOCTN1. Comparison of ASP^+ uptake by HEK293 cells stably transfected”.
